Reference: US9840506B2, “Crystal of doripenem, and preparation method therefor” (JW PHARMACEUTICAL CORPORATION, priority 2014, dated 2017)
Converted amounts (≈) assume the structure as drawn. Where two headings read alike, the source gives them in different places. One block for each compound: values may come before it.

Experiments:
Format in all cases: physicochemical
[1] = Solubility of doripenem crystal in water
Protocol: The solubility of the Type VI doripenem anhydride crystal of Example 3 according to the present invention was measured and compared with that of the Type IV doripenem of Comparative Example 9.
50 mg of each of the Type VI doripenem anhydride crystal of Example 3 and the Type IV doripenem of Comparative Example 9 was added with water until the doripenem was completely dissolved, and the solubility thereof was measured. Meanwhile, 10 mL of water was added with the Type VI doripenem anhydride crystal of Example 3 and the Type IV doripenem of Comparative Example 9 until the doripenem was completely dissolved, and the solubility thereof was measured.

[2] = Stability: purity after standing at 60° C. for 3 weeks
Protocol: In addition, the Type VI doripenem anhydride crystal according to the present invention and the Type IV doripenem were allowed to stand at 60° C. for 3 weeks, and the purity thereof was measured to evaluate the stability.

[3] = DSC, decomposition temperature / stability at high temperature
Protocol: When the Type VI doripenem anhydride crystal of Example 3 according to the present invention and the conventional Type IV doripenem were analyzed through differential scanning calorimetry (DSC), the decomposition temperature of the Type VI doripenem anhydride crystal was higher than that of the Type IV doripenem (FIG. 6).
In addition, the decomposition temperature of the Type VII doripenem anhydride crystal of Example 7 according to the present invention was higher than that of the Type IV doripenem hydrate (FIG. 11).

[4] = Measurement of water content
Protocol: The doripenem anhydride crystals of Examples 3 and 7 according to the present invention and the Type IV doripenem hydrate of Comparative Example 9 were measured for water content.

TGA loss = test: TGA loss
Protocol: Based on the results of TGA, about 4.8% loss occurred in the Type IV doripenem of Comparative Example 9 (FIG. 8) and about 0.46% loss occurred in the Type VI doripenem anhydride crystal of Example 3 according to the present invention (FIG. 7). This means that the novel doripenem crystal, prepared through the method of the present invention, is an anhydride. Furthermore, the water content of the doripenem anhydride crystal according to the present invention was measured and found to be less than about 2%.

[5] = Stability: max. amount of impurities after standing at 60±5° C. for 3 weeks
Protocol: In addition, the Type VII doripenem anhydride crystal of Example 7 according to the present invention and the Type IV doripenem of Comparative Example 9 were allowed to stand at 60±5° C. for 3 weeks, and the purity thereof was measured to evaluate the stability.

[6] = 2 weeks, listed as Comp. Example 9
[7] = 3 weeks, listed as Comp. Example 9

solubility ([1]; 22 °C, thermodynamic from solid, at 20 to 25° C., read-out: solubility): 55 to 65 mg/mL (≈ 131 to 155 mM)
Purity (%) ([2]; 1 week): 99.4%
Purity (%) ([2]; 2 weeks): 98.8%
Purity (%) ([2]; 3 weeks): 98.7%
decrease of purity over time ([2]; 3 weeks): less than 1%
Purity (%) ([2]; Initial): 99.6%
stability at high temperature (DSC decomposition temperature) compared to Type IV doripenem hydrate [3]: superior stability at high temperature
Water content ([4]; listed as Type VI doripenem anhydride crystal): less than 2%
loss in TGA (TGA loss): about 0.46%
SMILES: C[C@@H](O)[C@H]1C(=O)N2C(C(=O)O)=C(S[C@@H]3CN[C@H](CNS(N)(=O)=O)C3)[C@H](C)[C@H]12 [Example 3, doripenem]

solubility ([1]; 22 °C, thermodynamic from solid, measured in the same manner as for Example 3, read-out: solubility): 30 to 35 mg/mL (≈ 71.3 to 83.2 mM)
Max. Amount of impurities (%) ([5]; 1 week): 0.08%
Max. Amount of impurities (%) ([5]; 2 weeks): 0.08%
Max. Amount of impurities (%) ([5]; 3 weeks): 0.08%
increase of maximum amount of impurities over time ([5]; 3 weeks): 0.02%
Max. Amount of impurities (%) ([5]; Initial): 0.06%
stability at high temperature (DSC decomposition temperature) compared to Type IV doripenem hydrate [3]: superior stability at high temperature
Water content ([4]; listed as Type VII doripenem anhydride crystal): less than 2%
SMILES: C[C@@H](O)[C@H]1C(=O)N2C(C(=O)O)=C(S[C@@H]3CN[C@H](CNS(N)(=O)=O)C3)[C@H](C)[C@H]12 [Example 7, doripenem]

solubility ([1]; at 22° C.): 20 mg/mL (≈ 47.6 mM)
Purity (%) ([2]; 1 week, listed as Comp. Example 9): 99.0%
Purity (%) [2, 6]: 98.2%
Purity (%) [2, 7]: 97.3%
decrease of purity over time ([2]; 3 weeks, listed as Type IV doripenem): 2.56%
Purity (%) ([2]; Initial, listed as Comp. Example 9): 99.8%
Max. Amount of impurities (%) ([5]; 1 week): 0.08%
Max. Amount of impurities (%) [5, 6]: 0.23%
increase of maximum amount of impurities over time ([5]; 3 weeks): 0.22%
Max. Amount of impurities (%) [5, 7]: 0.28%
Max. Amount of impurities (%) ([5]; Initial): 0.06%
loss in TGA (TGA loss): about 4.8%
SMILES: C[C@@H](O)[C@H]1C(=O)N2C(C(=O)O)=C(S[C@@H]3CN[C@H](CNS(N)(=O)=O)C3)[C@H](C)[C@H]12 [Comparative Example 9, doripenem]
